Measured values reported in patent US7511077B2, “Diamine calcium channel blockers” (Neuromed Pharmaceuticals Ltd., priority 2005, dated 2009).
pIC50: −log10 of the molar value. Read-outs that look alike come from different tables or passages of the source.

Key:
[1] = test system: Rings from Rat Mesenteric Artery maximally pre-contracted with PE; test: Relaxation of pre-contracted rings from rat mesenteric artery; settings: compound at 10^−5 M, rings maximally pre-contracted with PE at 10^−4 M, read-out: Mesenteric artery Max % relax
Experimental: Sprague-Dawley rats (350-400 g, Charles River Canada) were anaesthetized with sodium pentobarbital (60 mg/kg). The mesenteric arteries were removed and suspended in a tissue bath filled with Krebs-Henseleit solution aerated with 95% O2 and 5% CO2 at 37° C. The tissues were equilibrated for one hour prior to the construction of a concentration-response curve to phenylephrine (PE). Following recovery of the response to PE, a second curve to PE was constructed at 5 min after the addition of a calcium channel blocker (n=2-8, each from a separate rat) or the vehicle (50 μl of equimolar DMSO). After recovery, a third and fourth curve to PE were constructed after addition of a higher concentration of blocker or vehicle. The protocol was repeated using portal veins (n=4, each from a separate rat).

[2] = biological target: T1, human α1G T-type channels (Homo sapiens, UniProt O43497); test: T-type calcium channel block, patch clamp in HEK cell lines; assay type: cell-based
T1 construct: expressed in transfected cells; host or cells: HEK cell lines
T1 sequence (O43497 whole entry): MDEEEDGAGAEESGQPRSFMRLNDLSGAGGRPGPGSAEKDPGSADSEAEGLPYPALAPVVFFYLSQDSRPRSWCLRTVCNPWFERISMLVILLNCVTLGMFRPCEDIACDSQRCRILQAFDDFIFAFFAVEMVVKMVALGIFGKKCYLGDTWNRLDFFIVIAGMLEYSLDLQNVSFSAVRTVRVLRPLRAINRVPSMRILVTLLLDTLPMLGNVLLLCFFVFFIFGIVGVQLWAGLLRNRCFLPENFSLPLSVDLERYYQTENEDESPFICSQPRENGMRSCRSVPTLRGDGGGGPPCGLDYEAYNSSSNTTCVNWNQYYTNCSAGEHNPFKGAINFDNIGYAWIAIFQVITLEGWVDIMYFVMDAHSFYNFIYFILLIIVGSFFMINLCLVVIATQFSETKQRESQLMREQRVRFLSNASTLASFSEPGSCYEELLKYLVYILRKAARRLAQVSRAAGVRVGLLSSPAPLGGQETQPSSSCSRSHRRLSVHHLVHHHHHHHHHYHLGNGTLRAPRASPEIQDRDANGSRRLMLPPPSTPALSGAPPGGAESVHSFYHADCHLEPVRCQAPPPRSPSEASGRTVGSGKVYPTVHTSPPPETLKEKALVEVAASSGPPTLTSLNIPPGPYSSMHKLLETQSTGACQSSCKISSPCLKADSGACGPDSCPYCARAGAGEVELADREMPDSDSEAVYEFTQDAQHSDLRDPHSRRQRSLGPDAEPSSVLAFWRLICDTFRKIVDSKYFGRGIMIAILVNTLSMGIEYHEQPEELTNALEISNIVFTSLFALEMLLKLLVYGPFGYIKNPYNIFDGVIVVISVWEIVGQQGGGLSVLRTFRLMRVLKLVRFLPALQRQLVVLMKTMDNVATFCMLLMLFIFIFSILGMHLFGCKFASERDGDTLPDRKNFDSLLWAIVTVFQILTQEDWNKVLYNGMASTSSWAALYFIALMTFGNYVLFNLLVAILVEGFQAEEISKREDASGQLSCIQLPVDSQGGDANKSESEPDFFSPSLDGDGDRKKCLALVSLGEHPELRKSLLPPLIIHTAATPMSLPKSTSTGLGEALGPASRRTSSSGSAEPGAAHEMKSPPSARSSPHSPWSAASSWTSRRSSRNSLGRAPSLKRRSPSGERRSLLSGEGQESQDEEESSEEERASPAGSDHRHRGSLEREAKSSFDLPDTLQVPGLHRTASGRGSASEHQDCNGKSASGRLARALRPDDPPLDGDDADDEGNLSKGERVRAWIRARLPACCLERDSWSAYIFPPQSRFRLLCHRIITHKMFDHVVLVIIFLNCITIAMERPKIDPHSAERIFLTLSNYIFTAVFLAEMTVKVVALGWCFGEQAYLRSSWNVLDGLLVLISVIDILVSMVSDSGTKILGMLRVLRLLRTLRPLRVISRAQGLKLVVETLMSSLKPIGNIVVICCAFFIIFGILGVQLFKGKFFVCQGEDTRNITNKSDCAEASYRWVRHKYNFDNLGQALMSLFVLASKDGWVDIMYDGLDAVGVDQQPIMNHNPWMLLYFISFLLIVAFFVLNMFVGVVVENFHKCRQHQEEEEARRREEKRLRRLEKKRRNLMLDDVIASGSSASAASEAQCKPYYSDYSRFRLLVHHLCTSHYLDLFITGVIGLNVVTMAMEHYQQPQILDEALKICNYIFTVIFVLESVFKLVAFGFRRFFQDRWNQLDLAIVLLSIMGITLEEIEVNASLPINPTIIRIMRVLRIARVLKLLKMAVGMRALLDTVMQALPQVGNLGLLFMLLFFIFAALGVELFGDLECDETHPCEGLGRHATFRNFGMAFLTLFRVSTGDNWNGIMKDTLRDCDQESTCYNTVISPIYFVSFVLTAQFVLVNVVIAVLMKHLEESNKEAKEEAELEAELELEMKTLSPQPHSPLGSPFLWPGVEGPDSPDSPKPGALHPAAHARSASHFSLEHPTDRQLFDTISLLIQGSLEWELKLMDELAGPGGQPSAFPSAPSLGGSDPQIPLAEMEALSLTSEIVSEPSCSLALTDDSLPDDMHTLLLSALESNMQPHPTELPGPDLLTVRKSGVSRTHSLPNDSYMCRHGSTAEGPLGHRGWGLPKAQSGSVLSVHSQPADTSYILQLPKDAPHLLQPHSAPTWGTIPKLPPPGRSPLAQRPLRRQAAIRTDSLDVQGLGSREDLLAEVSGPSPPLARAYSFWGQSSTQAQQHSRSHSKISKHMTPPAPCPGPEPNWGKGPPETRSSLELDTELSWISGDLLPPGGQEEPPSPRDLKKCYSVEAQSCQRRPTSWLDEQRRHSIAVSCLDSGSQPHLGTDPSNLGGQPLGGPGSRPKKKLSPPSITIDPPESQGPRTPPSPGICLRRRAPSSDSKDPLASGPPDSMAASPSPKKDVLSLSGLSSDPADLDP
Experimental: Standard patch-clamp techniques were employed to identify blockers of T-type currents. Briefly, previously described HEK cell lines stably expressing human α1G T-type channels were used for all the recordings (passage #: 4-20, 37° C., 5% CO2). To obtain T-type currents, plastic dishes containing semi-confluent cells were positioned on the stage of a ZEISS AXIOVERT S100 microscope after replacing the culture medium with external solution (see below). Whole-cell patches were obtained using pipettes (borosilicate glass with filament, O.D.: 1.5 mm, I.D.: 0.86 mm, 10 cm length), fabricated on a SUTTER P-97 puller with resistance values of ˜5 MΩ (see below for internal solution).
T-type currents were reliably obtained by using two voltage protocols: • (1) “non-inactivating”, and (2) “inactivation”
In the non-inactivating protocol, the holding potential is set at −110 mV and with a pre-pulse at −100 mV for 1 second prior to the test pulse at −40 mV for 50 ms. In the inactivation protocol, the pre-pulse is at approximately −85 mV for 1 second, which inactivates about 15% of the T-type channels.
Test compounds were dissolved in external solution, 0.1-0.01% DMSO. After ˜10 min rest, they were applied by gravity close to the cell using a WPI microfil tubing. The “non-inactivated” pre-pulse was used to examine the resting block of a compound. The “inactivated” protocol was employed to study voltage-dependent block. However, the initial data shown below were mainly obtained using the non-inactivated protocol only. IC50 values are shown for various compounds of the invention in Table 5.

[3] = biological target: T2, rat brain N-type calcium channel subunits (α1B+α2δ+β1b cDNA subunits) (Rattus norvegicus, UniProt Q02294); test: N-type calcium channel block, whole cell patch clamp in HEK 293 cells; assay type: cell-based; settings: holding potential −80 mV to +10 mV
T2 construct: expressed in transfected cells; host or cells: HEK 293
T2 sequence (Q02294 whole entry): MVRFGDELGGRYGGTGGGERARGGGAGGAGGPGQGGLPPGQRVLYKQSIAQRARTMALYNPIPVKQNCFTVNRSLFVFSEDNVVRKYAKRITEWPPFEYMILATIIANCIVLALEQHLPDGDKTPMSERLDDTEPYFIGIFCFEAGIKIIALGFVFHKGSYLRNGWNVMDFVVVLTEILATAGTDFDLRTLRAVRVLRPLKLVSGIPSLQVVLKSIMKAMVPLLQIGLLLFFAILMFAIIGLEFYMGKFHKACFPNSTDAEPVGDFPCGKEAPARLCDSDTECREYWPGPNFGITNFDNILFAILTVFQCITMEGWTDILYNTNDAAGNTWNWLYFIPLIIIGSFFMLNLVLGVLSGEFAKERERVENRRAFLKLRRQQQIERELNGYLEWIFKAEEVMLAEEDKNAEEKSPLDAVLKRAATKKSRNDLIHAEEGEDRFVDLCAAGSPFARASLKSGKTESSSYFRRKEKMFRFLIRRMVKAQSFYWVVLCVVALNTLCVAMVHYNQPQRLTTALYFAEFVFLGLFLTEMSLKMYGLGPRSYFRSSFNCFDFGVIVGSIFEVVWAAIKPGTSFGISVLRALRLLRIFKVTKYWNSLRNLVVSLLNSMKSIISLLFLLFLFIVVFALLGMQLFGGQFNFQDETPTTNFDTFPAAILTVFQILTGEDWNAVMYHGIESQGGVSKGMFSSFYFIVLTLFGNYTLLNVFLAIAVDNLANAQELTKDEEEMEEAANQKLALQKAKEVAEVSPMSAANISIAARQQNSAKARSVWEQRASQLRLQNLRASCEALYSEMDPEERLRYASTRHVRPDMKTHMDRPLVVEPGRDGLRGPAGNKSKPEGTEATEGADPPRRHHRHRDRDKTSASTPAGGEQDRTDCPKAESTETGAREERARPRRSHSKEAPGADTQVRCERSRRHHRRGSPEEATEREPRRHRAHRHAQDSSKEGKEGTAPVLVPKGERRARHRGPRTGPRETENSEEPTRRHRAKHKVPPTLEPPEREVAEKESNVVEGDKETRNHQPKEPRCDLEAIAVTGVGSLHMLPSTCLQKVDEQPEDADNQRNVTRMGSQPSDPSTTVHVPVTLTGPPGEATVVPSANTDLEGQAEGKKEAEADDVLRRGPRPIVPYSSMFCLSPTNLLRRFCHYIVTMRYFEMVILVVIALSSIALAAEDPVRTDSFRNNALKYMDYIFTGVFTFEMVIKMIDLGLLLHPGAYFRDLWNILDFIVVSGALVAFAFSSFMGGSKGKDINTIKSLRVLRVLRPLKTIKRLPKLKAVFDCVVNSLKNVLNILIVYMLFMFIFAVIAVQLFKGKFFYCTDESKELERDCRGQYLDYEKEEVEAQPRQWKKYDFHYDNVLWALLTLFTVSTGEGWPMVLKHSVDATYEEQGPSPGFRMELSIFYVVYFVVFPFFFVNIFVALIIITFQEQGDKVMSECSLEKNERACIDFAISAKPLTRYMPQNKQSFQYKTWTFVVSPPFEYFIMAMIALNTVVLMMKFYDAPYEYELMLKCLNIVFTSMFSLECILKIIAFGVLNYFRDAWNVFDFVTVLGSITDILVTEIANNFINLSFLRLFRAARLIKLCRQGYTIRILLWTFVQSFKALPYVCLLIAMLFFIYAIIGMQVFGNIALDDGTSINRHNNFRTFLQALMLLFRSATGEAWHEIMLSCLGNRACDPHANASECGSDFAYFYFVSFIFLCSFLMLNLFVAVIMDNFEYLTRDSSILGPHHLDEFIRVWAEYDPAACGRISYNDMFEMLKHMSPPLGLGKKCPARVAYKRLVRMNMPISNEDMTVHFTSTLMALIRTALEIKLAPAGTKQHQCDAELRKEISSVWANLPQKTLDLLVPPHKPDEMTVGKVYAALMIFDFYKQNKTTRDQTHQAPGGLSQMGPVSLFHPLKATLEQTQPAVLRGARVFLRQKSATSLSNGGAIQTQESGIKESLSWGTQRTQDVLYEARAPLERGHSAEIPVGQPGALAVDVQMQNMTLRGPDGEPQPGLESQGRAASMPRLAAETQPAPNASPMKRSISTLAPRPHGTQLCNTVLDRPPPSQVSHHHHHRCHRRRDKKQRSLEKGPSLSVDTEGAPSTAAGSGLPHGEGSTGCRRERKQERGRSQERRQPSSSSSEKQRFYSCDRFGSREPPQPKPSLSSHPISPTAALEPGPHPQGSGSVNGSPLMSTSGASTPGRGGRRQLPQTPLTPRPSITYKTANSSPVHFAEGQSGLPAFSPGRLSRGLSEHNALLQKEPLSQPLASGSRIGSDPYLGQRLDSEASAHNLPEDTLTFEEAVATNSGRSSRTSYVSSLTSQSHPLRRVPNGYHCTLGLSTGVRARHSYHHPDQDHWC
Experimental: N-type calcium channel blocking activity was assayed in human embryonic kidney cells, HEK 293, stably transfected with the rat brain N-type calcium channel subunits (α1B+α2δ+β1b cDNA subunits). Alternatively, N-type calcium channels (α1B+α2δ+β1b cDNA subunits), L-type channels (α1C+α2δ+β1b cDNA subunits) and P/Q-type channels (α1A+α2δ+β1b cDNA subunits) were transiently expressed in HEK 293 cells. Briefly, cells were cultured in Dulbecco's modified eagle medium (DMEM) supplemented with 10% fetal bovine serum, 200 U/ml penicillin and 0.2 mg/ml streptomycin at 37° C. with 5% CO2. At 85% confluency cells were split with 0.25% trypsin/1 mM EDTA and plated at 10% confluency on glass coverslips. At 12 hours the medium was replaced and the cells transiently transfected using a standard calcium phosphate protocol and the appropriate calcium channel cDNA's. Fresh DMEM was supplied and the cells transferred to 28° C./5% CO2. Cells were incubated for 1 to 2 days prior to whole cell recording.
Whole cell patch clamp experiments were performed using an Axopatch 200B amplifier (Axon Instruments, Burlingame, Calif.) linked to a personal computer equipped with pCLAMP software. The external and internal recording solutions contained, respectively, 5 mM BaCl2, 10 mM MgCl2, 10 mM HEPES, 40 mM TEACl, 10 mM glucose, 87.5 mM CsCl (pH 7.2) and 108 mM CsMS, 4 mM MgCl2, 9 mM EGTA, 9 mM HEPES (pH 7.2). Currents were typically elicited from a holding potential of −80 mV to +10 mV using Clampex software (Axon Instruments). Typically, currents were first elicited with low frequency stimulation (0.067 Hz) and allowed to stabilize prior to application of the compounds. The compounds were then applied during the low frequency pulse trains for two to three minutes to assess tonic block, and subsequently the pulse frequency was increased to 0.2 Hz to assess frequency dependent block. Data were analyzed using Clampfit (Axon Instruments) and SigmaPlot 4.0 (Jandel Scientific).

[4] = test system: Rings from Rat Portal Vein maximally pre-contracted with PE; test: Relaxation of pre-contracted rings from rat portal vein; settings: compound at 10^−5 M, rings maximally pre-contracted with PE at 10^−4 M, read-out: Portal vein Max % relax
[5] = test system: T-type over L-type channels; settings: cited from earlier work
[6] = Blood pressure reduction in SHR; assay type: in vivo
[7] = non-inactivating protocol, pre-pulse −100 mV (resting block), read-out: IC50 @ −100 mV
[8] = −80 mV (inactivation protocol, voltage-dependent block), read-out: IC50 @ −80 mV
[9] = low frequency stimulation 0.067 Hz (tonic block), read-out: IC50 @ 0.067 Hz
[10] = pulse frequency 0.2 Hz (frequency dependent block), read-out: IC50 @ 0.2 Hz

pIC50 [2, 7] | pIC50 [2, 8] | pIC50 [3, 9] | pIC50 [3, 10] | SMILES | Emax at 10 µM [1] | Emax at 10 µM [4] | selective for T-type over L-type channels [5] | BP SHR at 4 hrs % reduction [6]
7.51 | 8.10 | 6.51 | 6.52 | CC(C)c1ccc(C(=O)NCCCCNC(=O)CCCCC(c2ccc(F)cc2)c2ccc(F)cc2)cc1 [Compound P37, N-{4-[6,6-Bis-(4-fluoro-phenyl)-hexanoylamino]-butyl}-4-isopropyl-benzamide] | 42% | 51% |  | 
6.16 | 7.00 | 6.54 | 6.54 | O=C(CCCCC(c1ccc(F)cc1)c1ccc(F)cc1)NCC#CCNC(=O)c1ccc(F)cc1 [Compound P29, N-{4-[6,6-Bis-(4-fluoro-phenyl)-hexanoylamino]-but-2-ynyl}-4-fluoro-benzamide] | 63% | 51% |  | 
5.74 | 5.96 | 5.66 | 6.25 | O=C(CC(c1ccccc1)c1ccccc1)NCC#CCN(Cc1ccccn1)Cc1ccccn1 [Compound P32, N-[4-(Bis-pyridin-2-ylmethyl-amino)-but-2-ynyl]-3,3-diphenyl-propionamide] | 50% | 49% |  | 
6.47 | 6.69 | 6.84 | 7.40 | Cc1ccc(C(=O)NCC#CCNC(=O)CCCCC(c2ccc(F)cc2)c2ccc(F)cc2)cc1 [Compound P26, N-{4-[6,6-Bis-(4-fluoro-phenyl)-hexanoylamino]-but-2-ynyl}-4-methyl-benzamide] | 40% | 34% |  | 
7.27 | 7.68 | 7.72 | 6.90 | O=C(CCCCC(c1ccc(F)cc1)c1ccc(F)cc1)NC/C=C/CNC(=O)c1cc(C(F)(F)F)cc(C(F)(F)F)c1 [Compound P15, N-{(E)-4-[6,6-Bis-(4-fluoro-phenyl)-hexanoylamino]-but-2-enyl}-3,5-bis-trifluoromethyl-benzamide] | 9% |  |  | 
 |  |  |  | COc1ccc(C(=O)NCC#CCNC(=O)CCCCC(c2ccc(F)cc2)c2ccc(F)cc2)cc1 [Compound P27, N-{4-[6,6-Bis-(4-fluoro-phenyl)-hexanoylamino]-but-2-ynyl}-4-methoxy-benzamide] | 41% | 51% |  | 
7.42 | 7.92 | 7.07 | 7.23 | CC(C)(C)c1ccc(C(=O)NC/C=C\CNC(=O)CCCCC(c2ccc(F)cc2)c2ccc(F)cc2)cc1 [Compound P4, N-{(Z)-4-[6,6-Bis-(4-fluoro-phenyl)-hexanoylamino]-but-2-enyl}-4-tert-butyl-benzamide] | 8% |  |  | 
 |  |  |  | COc1c(C(C)(C)C)cc(C(=O)NCC#CCNC(=O)CCCCC(c2ccc(F)cc2)c2ccc(F)cc2)cc1C(C)(C)C [Compound P23, N-{4-[6,6-Bis-(4-fluoro-phenyl)-hexanoylamino]-but-2-ynyl}-3,5-di-tert-butyl-4-methoxy-benzamide] | 0% |  |  | 
 |  |  |  | COCC(=O)O[C@]1(CCN(C)CCCc2nc3ccccc3[nH]2)CCc2cc(F)ccc2[C@@H]1C(C)C [Mibefradil] |  |  | 10-30 fold | 
7.70 | 8.22 | 6.74 | 6.95 | O=C(CCCCC(c1ccc(F)cc1)c1ccc(F)cc1)NC/C=C\CNC(=O)c1ccc(F)cc1 [Compound P10, N-{(Z)-4-[6,6-Bis-(4-fluoro-phenyl)-hexanoylamino]-but-2-enyl}-4-fluoro-benzamide] | 35% | 38% |  | 
6.89 | 7.17 | 7.24 | 7.57 | O=C(CCCCC(c1ccc(F)cc1)c1ccc(F)cc1)NC/C=C\CNC(=O)COc1ccc(Cl)cc1 [Compound P6, 6,6-Bis-(4-fluoro-phenyl)-hexanoic acid{(Z)-4-[2-(4-chloro-phenoxy)-acetylamino]-but-2-enyl}-amide] | 35% | 28% |  | 
 |  |  |  | CC(C)(C)c1ccc(C(=O)NCC#CCNC(=O)CCCCC(c2ccc(F)cc2)c2ccc(F)cc2)cc1 [Compound P24, N-{4-[6,6-Bis-(4-fluoro-phenyl)-hexanoylamino]-but-2-ynyl}-4-tert-butyl-benzamide] | 0% |  |  | 
7.57 | 8.15 | 7.13 | 7.34 | O=C(CCCCC(c1ccc(F)cc1)c1ccc(F)cc1)NC/C=C\CNC(=O)c1cc(C(F)(F)F)cc(C(F)(F)F)c1 [Compound P5, N-{(Z)-4-[6,6-Bis-(4-fluoro-phenyl)-hexanoylamino]-but-2-enyl}-3,5-bis-trifluoromethyl-benzamide] | 10% |  |  | 
7.14 | 7.54 | 6.44 | 6.44 | O=C(CCCCC(c1ccc(F)cc1)c1ccc(F)cc1)NCC#CCNC(=O)c1ccc(Cl)cc1 [Compound P28, N-{4-[6,6-Bis-(4-fluoro-phenyl)-hexanoylamino]-but-2-ynyl}-4-chloro-benzamide] | 61% | 25% |  | 13 n = 4%
